Reference: BindingDB's records for patent US20240150287 (Hangzhou Apeloa Medicine Research Institute Co., 2024)

Target: T1, Mucosal addressin cell adhesion molecule 1/Integrin alpha-4/beta-7 (Homo sapiens, UniProt P13612+P26010+Q13477)
T1 sequence (P13612 whole entry): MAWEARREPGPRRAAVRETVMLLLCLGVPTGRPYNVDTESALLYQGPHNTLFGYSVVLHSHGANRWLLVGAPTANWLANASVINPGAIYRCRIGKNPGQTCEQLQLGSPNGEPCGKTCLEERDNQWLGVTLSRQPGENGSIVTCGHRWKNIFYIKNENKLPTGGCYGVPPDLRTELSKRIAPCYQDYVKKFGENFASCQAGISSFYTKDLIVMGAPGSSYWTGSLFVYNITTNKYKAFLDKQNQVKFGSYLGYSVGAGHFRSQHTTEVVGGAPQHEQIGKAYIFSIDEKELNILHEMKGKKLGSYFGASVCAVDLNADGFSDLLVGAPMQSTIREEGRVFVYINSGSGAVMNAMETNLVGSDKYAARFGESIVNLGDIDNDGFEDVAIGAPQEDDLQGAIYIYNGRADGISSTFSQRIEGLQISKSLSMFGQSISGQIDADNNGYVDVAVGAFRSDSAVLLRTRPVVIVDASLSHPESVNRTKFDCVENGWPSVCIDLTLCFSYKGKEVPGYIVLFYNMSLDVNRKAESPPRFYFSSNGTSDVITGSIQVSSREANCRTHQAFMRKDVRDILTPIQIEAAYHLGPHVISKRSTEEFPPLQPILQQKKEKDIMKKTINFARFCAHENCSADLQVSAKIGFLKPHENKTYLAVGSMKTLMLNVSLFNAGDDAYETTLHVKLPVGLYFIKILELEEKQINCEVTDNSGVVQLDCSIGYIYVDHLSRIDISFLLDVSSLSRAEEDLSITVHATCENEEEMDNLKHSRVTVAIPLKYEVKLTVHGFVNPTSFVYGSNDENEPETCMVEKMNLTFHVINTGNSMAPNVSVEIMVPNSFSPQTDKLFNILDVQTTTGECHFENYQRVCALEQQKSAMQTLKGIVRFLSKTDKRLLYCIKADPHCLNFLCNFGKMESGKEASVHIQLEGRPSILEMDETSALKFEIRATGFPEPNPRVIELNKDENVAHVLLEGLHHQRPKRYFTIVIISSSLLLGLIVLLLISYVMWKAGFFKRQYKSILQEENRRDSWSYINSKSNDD
T1 sequence (P26010 whole entry): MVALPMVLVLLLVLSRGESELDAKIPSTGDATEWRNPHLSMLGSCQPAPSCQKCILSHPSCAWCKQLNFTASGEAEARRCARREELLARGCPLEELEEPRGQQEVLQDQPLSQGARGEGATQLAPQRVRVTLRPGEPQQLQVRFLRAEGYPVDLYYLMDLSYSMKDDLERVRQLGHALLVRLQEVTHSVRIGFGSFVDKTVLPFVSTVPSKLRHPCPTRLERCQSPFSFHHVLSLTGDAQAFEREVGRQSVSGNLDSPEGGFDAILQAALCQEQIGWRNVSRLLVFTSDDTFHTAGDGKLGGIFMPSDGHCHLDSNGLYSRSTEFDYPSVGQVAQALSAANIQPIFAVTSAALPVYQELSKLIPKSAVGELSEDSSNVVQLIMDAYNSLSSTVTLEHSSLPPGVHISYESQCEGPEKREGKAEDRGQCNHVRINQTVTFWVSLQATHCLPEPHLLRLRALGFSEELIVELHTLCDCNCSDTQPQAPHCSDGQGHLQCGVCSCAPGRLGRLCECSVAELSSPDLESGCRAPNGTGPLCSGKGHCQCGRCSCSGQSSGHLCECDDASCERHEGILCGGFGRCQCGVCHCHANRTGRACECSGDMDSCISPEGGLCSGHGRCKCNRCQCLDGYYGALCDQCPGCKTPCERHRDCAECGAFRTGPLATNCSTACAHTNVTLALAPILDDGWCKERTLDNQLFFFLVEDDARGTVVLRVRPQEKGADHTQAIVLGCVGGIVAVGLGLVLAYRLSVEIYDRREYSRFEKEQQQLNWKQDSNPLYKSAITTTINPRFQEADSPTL
T1 sequence (Q13477 whole entry): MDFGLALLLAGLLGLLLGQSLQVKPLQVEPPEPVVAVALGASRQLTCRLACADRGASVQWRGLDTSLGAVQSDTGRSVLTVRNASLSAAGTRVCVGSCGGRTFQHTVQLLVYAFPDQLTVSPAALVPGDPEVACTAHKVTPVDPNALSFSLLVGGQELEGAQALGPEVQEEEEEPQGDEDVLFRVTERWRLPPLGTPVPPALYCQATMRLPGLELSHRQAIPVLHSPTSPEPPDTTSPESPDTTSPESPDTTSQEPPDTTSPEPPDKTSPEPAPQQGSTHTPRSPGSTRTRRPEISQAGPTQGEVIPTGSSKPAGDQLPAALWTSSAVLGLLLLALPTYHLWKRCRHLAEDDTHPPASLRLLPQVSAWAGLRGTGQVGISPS
Assay: BINDING INHIBITION ACTIVITY EVALUATION TEST
Experimental: Coat the 96-well microplate (Costar) with 50 μL of recombinant human MAdCAM-1 (R&D Systems) solution per well, and incubate overnight (12-18 hours) at 4° C. Wash three times with 150 μL of TBS buffer per well. Block plate with 150 μL per well with blocking buffer for 1 h at 37° C. Wash three times with 150 μL of TBS buffer per well. Dilute the recombinant human integrin α4β7 (R&D Systems) with TBS buffer containing 0.1% bovine serum albumin (BSA), then add to the 96 well plate with 50 μL per well. Add 1 μL of test compound or DMSO, cover, incubate at room temperature for 2 h, wash three times with 150 μL of TBS buffer per well. Dilute the anti-β7 antibody (R&D Systems) with 0.1% BSA TBS buffer, then add to the 96 well plate with 50 μL per well, cover, incubate at room temperature for 1 h, wash three times with 150 μL of TBS buffer per well. Add 50 μL of streptavidin-HRP (R&D Systems) per well, incubate at room temperature for 20 min, wash three times with 150 μL of TBS buffer per well. Add 50 μL of TMB substrate solution (Sigma) per well, incubate at room temperature for 5-30 min, and add 25 μL of stop solution per well to stop the reaction. Finally, measure absorbance at 450 nm with microplate reader (SpectraMax 340PC. Molecular Devices). Repeat the test to find the binding rate […] at each concentration when the absorbance of the well without the test substance is used as 100%, and calculate the concentration IC50 that causes 50% binding inhibition.

IC50 | Compound
1.51 nM | COC(=O)[C@H](Cc1ccc(-n2c(=O)n(C)c3ccc(N(C)C)cc32)cc1)NC(c1ccccc1)(c1ccccc1)c1ccccc1 [US20240150287, Example 36]
5.09 nM | COC(=O)[C@H](Cc1ccc(-n2c(=O)n(C)c3cc(N(C)C)ccc32)cc1)NC(c1ccccc1)(c1ccccc1)c1ccccc1 [US20240150287, Example 37]
27.9 nM | COC(=O)[C@H](Cc1ccc(-n2c(=O)n(C)c3cccc(Cl)c32)cc1)NC(=O)c1c(Cl)cc(Cl)cc1Cl [US20240150287, Example 38]
3.65 nM | COC(=O)[C@H](Cc1ccc(-n2c(=O)n(C)c3cccc(Cl)c32)cc1)NC(=O)c1c(Cl)cc(N2CCOCC2)cc1Cl [US20240150287, Example 39]
